Data from patent US11241455B2, “Methods of treating disease by metabolic control of T-cell differentiation” (The J. David Gladstone Institutes, a testamentary trust …, priority 2016, dated 2022).

Legend:
Type in all cases: cell-based, mouse
[1] = system: differentiating TH17 cells; test: Intracellular metabolite profiling by LC/MS in differentiating TH17 cells
Method: (§1) CD4 naïve T cells, differentiating TH17 cells (day 2.5), and differentiating iTreg cells (day 2.5) were obtained as described above. A solution of 80/20 methanol (MeOH)/H2O was used to extract intracellular metabolites. The extracted samples were analyzed with liquid chromatography (LC)/mass spectrometry (MS) metabolomics. 200 ng/mL of extraction standard (L-Glutamic acid-^13C5-^15N-d5) was added into samples, and the peak value for each metabolite was normalized to extraction standard. The data was transformed into Log 2 and clustered. Cell extracts obtained as described above were analyzed for relative abundance of ^13C and ^15N metabolites by liquid chromatography-triple quadrupole mass spectrometry (LC-MS) using scheduled selective reaction monitoring (SRM) for each metabolite of interest, with the detector set to negative mode. Quantitation of intracellular 2-hydroxyglutarate (2HG) was conducted as described previously (Kernesky et al., Blood 2015, 125(2) 296-303).

[2] = system: differentiating iTreg cells; test: U-13C glutamine flux analysis in differentiating iTreg cells; settings: 2 mM U-13C-glutamine for 4 hours
Method: CD4 naïve T cells, differentiating TH17 or iTreg cells (68 hours) were incubated with fresh media prior to labeling. The cells were then cultured for 4 hours at 37° C. with medium where the glutamine was replaced with the corresponding stable isotope label: 2 mM U-^13C glutamine or 2 mM ^15N-α-glutamine for 4 hours at 37° C. The cells were quickly collected and quickly washed with phosphate buffer saline (PBS), pelleted, and snap frozen in liquid nitrogen. The frozen samples were kept in −80° C. until extraction. Cell extracts were prepared by first adding 80/20 MeOH/H2O at −60° C. to the frozen pellets and collecting the supernatant after centrifugation at 4° C. The extracted samples were analyzed by high-resolution liquid-chromatography-mass spectrometry. Unlabeled glutamine-fed cells were used as background. For negative mode metabolomics: Cell extracts obtained as described above were analyzed for relative abundance of metabolites by liquid chromatography-triple quadrupole mass spectrometry (LC-MS) using scheduled selective reaction monitoring (SRM) for each metabolite of interest, with the detector set to negative mode. Prior to injection, dried extracts were reconstituted in LC-MS grade water. LC separation was achieved by reverse-phase ion-pairing chromatography.

[3] = system: FOXP3 promoter and its intronic CpG island; test: Methylation analysis by bisulfite sequencing, T cells under iTreg condition; settings: iTreg condition (day 5); 0.5 mM dimethyl R-2-HG or AOA; male mice
Method: (§2) The method is essentially the same as described previously (Kim, et al. J Exp Med 204 (7), 1543-1551 (2007)). Briefly, genomic DNA was purified with Blood & Cell Culture DNA Midi Kit (Qiagen). Bisufite conversion of genomic DNA was performed using Epitect® bisulfite kit (Qiagen), according to the manufacture's instruction. The PCR product was run on 2% agarose, purified and cloned using TOPO® TA Cloning® Kit with PCR®4. Clones are picked for Sanger sequencing.

[4] = system: differentiating iTreg cells; test: Intracellular metabolite profiling by LC/MS in differentiating iTreg cells; settings: day 2.5, 0.5 mM AOA
Method: as §1

[5] = system: FOXP3 promoter and its intronic CpG island; test: Methylation analysis by bisulfite sequencing, T cells under TH17 condition; settings: 0.5 mM dimethyl R-2-HG (day 4) or AOA (day 6), male mice
Method: as §2

[6] = system: differentiating iTreg cells; test: iTreg differentiation of CD4 naïve T cells (FOXP3-GFP reporter or intracellular staining of FOXP3); settings: AOA added after 24 hours, analyzed at end of differentiation
Method: CD4 naïve T cells (CD4+CD25-CD62^highCD44^low) were obtained from interleukin (IL)-17F-red fluorescent protein (RFP)/FOXP3-green fluorescent protein (GFP) mice, which were characterized previously, or wild-type C57/BL6 mice, by cell sorting. 0.4 million cells were plated into 48 wells coated with anti-mouse CD3 (clone 145-2C11, eBioscience) […] and anti-mouse CD28 (clone 37.51, eBioscience) (1 μg/ml). The differentiation media for these naïve T cells was as follows: 0.5 ng/ml (or indicated) transforming growth factor (TGF) β, 200 U/ml mouse IL-2, 2 μg/ml anti-interferon (IFN) γ and 2 μg/ml anti-mouse IL4 for differentiation into iTreg cells; and 2.5 ng/ml TGFβ, 10 ng/ml mouse IL-1β, 10 ng/ml mouse IL-6, 10 ng/ml mouse IL-23, 2 μg/ml anti-mouse IFNγ, and anti-mouse IL-4 for differentiating into TH17 cells. The cells were supplemented with new medium at day 4. In cases in which small-molecule compounds were present, the fresh medium containing the same concentration of compounds was used. When necessary, the individual metabolite was added into the T-cell culture 6 hours later after initial cell plating. […]

[7] = differentiating TH17 cells, day 2.5, 0.5 mM AOA

Q: Which “abundance of TCA cycle intermediates (α-KG, succinate, fumarate, malate, citrate)” value [1, 7] does the source give for `NOCC(=O)O` [AOA, (aminooxy)-acetic acid] here?
A: Its value is “reduced partially”.

Q: What about the level of glutamate [1, 7] of the same compound?
A: The level of glutamate was “slightly higher”.

Q: What about the “reduction of steady-state levels of 2-HG” value [1, 7] of the same compound?
A: The value was 75%.

Q: What about the “level of glutathione, oxidized glutathione, or L-asparate” value ([1]; re-plotted from FIG. 2a: differentiating TH17 or iTreg cells (day 2.5), absence or presence of AOA) of the same compound?
A: Its value is “does not affect”.

Q: And the “de novo synthesis of α-KG and 2-HG (U-13C labeled, normalized to U-13C-glutamine)” value [2]?
A: The value was “inhibited”.

Q: And the “methylation level of FOXP3 promoter and its intronic CpG island” value [3]?
A: Its value is “dramatically decreased the methylation levels”.

Q: What about the “abundance of TCA cycle intermediates (α-KG, succinate, fumarate, malate, citrate)” value [4] of the same compound?
A: Its value is “reduced partially”.

Q: And the level of glutamate [4]?
A: Its level of glutamate is “slightly higher”.

Q: What about the “reduction of steady-state levels of 2-HG” value [4] of the same compound?
A: Its value is 50%.

Q: And the “methylation level of FOXP3 promoter and its intronic CpG island” value [5]?
A: The value was “dramatically decreased the methylation levels”.

Q: And the “iTreg cell induction under iTreg differentiation conditions” value [6]?
A: Its value is “dose-dependently promote iTreg cell induction”.
